Like-named read-outs stand apart in the source and are kept apart here.
What was measured:
[1] = system: Key Grass and Sedge Weeds as well as Grass Crops; assay: Post-emergent Test II herbicidal activity (Table 16); type: in vivo; settings: post-emergence, 336 h, 14 days after application; for pest or weed control at 35 g/ha: 35 g ai/ha; for pest or weed control at 70 g/ha: 70 g ai/ha; for pest or weed control at 140 g/ha: 140 g ai/ha
In short: (§1)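 Herbicidal effect scored as percent visual injury, 14 d after post-emergent application. Spray solutions contained acetone, DMSO, isopropyl alcohol, crop oil concentrate and surfactant, applied at 187 L/ha to young plants (1-2 true leaves).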

[2] = system: Key Broadleaf Weed and Crop Species; assay: Post-emergent Test II herbicidal activity (Table 15); type: in vivo; settings: post-emergence, 336 h, 14 d; for pest or weed control at 35 g/ha: 35 g ai/ha; for pest or weed control at 70 g/ha: 70 g ai/ha; for pest or weed control at 140 g/ha: 140 g ai/ha
In short: as §1

[3] = Cyperus esculentus, yellow nutsedge (Cyperus esculentus), read-out: Visual Growth Reduction (%) 14 Days After Application CYPES
[4] = Echinochloa crus-galli, barnyardgrass (Echinochloa crus-galli), read-out: Visual Growth Reduction (%) 14 Days After Application ECHCG
[5] = Oryza sativa, rice (Oryza sativa), read-out: Visual Growth Reduction (%) 14 Days After Application ORYSA
[6] = Setaria faberi, giant foxtail (Setaria faberi), read-out: Visual Growth Reduction (%) 14 Days After Application SETFA
[7] = Triticum aestivum, wheat, spring (Triticum aestivum), read-out: Visual Growth Reduction (%) 14 Days After Application TRZAS
[8] = Zea mays, maize, corn (Zea mays), read-out: Visual Growth Reduction (%) 14 Days After Application ZEAMX
[9] = Abutilon theophrasti, velvetleaf (Abutilon theophrasti), read-out: Visual Growth Reduction (%) 14 Days After Application, ABUTH
[10] = Amaranthus retroflexus, redroot pigweed (Amaranthus retroflexus), read-out: Visual Growth Reduction (%) 14 Days After Application, AMARE
[11] = Brassica napus, oilseed rape, canola (Brassica napus), read-out: Visual Growth Reduction (%) 14 Days After Application, BRSNN
[12] = Chenopodium album, lambsquarters (Chenopodium album), read-out: Visual Growth Reduction (%) 14 Days After Application, CHEAL
[13] = Euphorbia heterophylla, wild poinsettia (Euphorbia heterophylla), read-out: Visual Growth Reduction (%) 14 Days After Application, EPHHL
[14] = Helianthus annuus, sunflower (Helianthus annuus), read-out: Visual Growth Reduction (%) 14 Days After Application, HELAN

For `COC(=O)c1nc(-c2ccc3ccsc3c2)c(C)c(N)c1Cl` [Compound 3.18], the pest or weed control at 35 g/ha [1, 3] was 0 to 29%, the pest or weed control at 70 g/ha [1, 3] was 0 to 29% and the pest or weed control at 140 g/ha [1, 3] was 0 to 29%. It also gave a pest or weed control at 35 g/ha [1, 4] of 0 to 29%, a pest or weed control at 70 g/ha [1, 4] of 0 to 29% and a pest or weed control at 140 g/ha [1, 4] of 0 to 29%. It also gave a pest or weed control at 35 g/ha [1, 5] of 0 to 29%, a pest or weed control at 70 g/ha [1, 5] of 0 to 29% and a pest or weed control at 140 g/ha [1, 5] of 0 to 29%. For the same molecule, the pest or weed control at 35 g/ha [1, 6] was 0 to 29%, the pest or weed control at 70 g/ha [1, 6] was 0 to 29% and the pest or weed control at 140 g/ha [1, 6] was 0 to 29%. For the same molecule, the pest or weed control at 35 g/ha [1, 7] was 0 to 29%, the pest or weed control at 70 g/ha [1, 7] was 0 to 29% and the pest or weed control at 140 g/ha [1, 7] was 0 to 29%. It also gave a pest or weed control at 35 g/ha [1, 8] of 0 to 29%, a pest or weed control at 70 g/ha [1, 8] of 0 to 29% and a pest or weed control at 140 g/ha [1, 8] of 0 to 29%. For the same molecule, the melting point was 143 to 146 °C, the pest or weed control at 35 g/ha [2, 9] was 60 to 74% and the pest or weed control at 70 g/ha [2, 9] was 75 to 84%. It also gave a pest or weed control at 140 g/ha [2, 9] of 75 to 84%, a pest or weed control at 35 g/ha [2, 10] of 60 to 74% and a pest or weed control at 70 g/ha [2, 10] of 75 to 84%. The pest or weed control at 140 g/ha [2, 10] was 95 to 100%, the pest or weed control at 35 g/ha [2, 11] was 0 to 29% and the pest or weed control at 70 g/ha [2, 11] was 0 to 29%. The pest or weed control at 140 g/ha [2, 11] was 0 to 29%, the pest or weed control at 35 g/ha [2, 12] was 30 to 44% and the pest or weed control at 70 g/ha [2, 12] was 60 to 74%. The pest or weed control at 140 g/ha [2, 12] was 60 to 74%, the pest or weed control at 35 g/ha [2, 13] was 45 to 59% and the pest or weed control at 70 g/ha [2, 13] was 0 to 29%. For the same molecule, the pest or weed control at 140 g/ha [2, 13] was 30 to 44%, the pest or weed control at 35 g/ha [2, 14] was 95 to 100% and the pest or weed control at 70 g/ha [2, 14] was 95 to 100%. It also gave a pest or weed control at 140 g/ha [2, 14] of 95 to 100%.

Reference: US20170050957A1, “4-AMINO-6-(HETEROCYCLIC)PICOLINATES AND 6-AMINO-2-(HETEROCYCLIC)PYRIMIDINE-4-CARBOXYLATES AND THEIR USE AS HERBICIDES” (Dow AgroSciences LLC, priority 2013, published 2017)
